The values that follow are results of earlier work, collected in patent US20070287651A1, “Bleaching compositions” (The Procter & Gamble Company, priority 2006, published 2007).

Each structure is given as a SMILES string.

The conditions of the data set: deionized water at 25° C. (definition).

`c1ccc2oc(-c3ccc(-c4nc5ccccc5o4)s3)nc2c1` [Tinopal SOP, benzoxazole,2,2′-(thiophenaldyl)bis]: the solubility in water entry is on record as “lower than 1 gram per liter”.
